The text below walks through data of publication PMC4770715, “LIM kinase inhibitors disrupt mitotic microtubule organization and impair tumor cell proliferation” (Oncotarget, 2015).

Targets include BRAF (Homo sapiens, UniProt P15056); CAMK2D (Homo sapiens, UniProt Q13557); CDK5 (Homo sapiens, UniProt Q00535); CHEK1 (Homo sapiens, UniProt O14757); FLT1 (Homo sapiens, UniProt P17948); GAK (Homo sapiens, UniProt O14976); HIPK3 (Homo sapiens, UniProt Q9H422); MKNK1 (Homo sapiens, UniProt Q9BUB5); NEK4 (Homo sapiens, UniProt P51957); NEK7 (Homo sapiens, UniProt Q8TDX7); PAK2 (Homo sapiens, UniProt Q13177); PAK4 (Homo sapiens, UniProt O96013); PIK3CA(I800L) (Homo sapiens, UniProt P42336, I800L); PKN2 (Homo sapiens, UniProt Q16513); PRKCI (Homo sapiens, UniProt P41743); ROS1 (Homo sapiens, UniProt P08922); TNK2 (Homo sapiens, UniProt Q07912).

Common to all, as to assay: biochemical
Set-up in all cases: KINOMEscan active-site competition binding, percent of control (100 = no competition)
What all share (conditions): competition binding, percent control

In another experiment the target is T1, ERK5 (Homo sapiens, UniProt Q13164).
T1 construct: gene MAPK7
T1 sequence (Q13164 whole entry): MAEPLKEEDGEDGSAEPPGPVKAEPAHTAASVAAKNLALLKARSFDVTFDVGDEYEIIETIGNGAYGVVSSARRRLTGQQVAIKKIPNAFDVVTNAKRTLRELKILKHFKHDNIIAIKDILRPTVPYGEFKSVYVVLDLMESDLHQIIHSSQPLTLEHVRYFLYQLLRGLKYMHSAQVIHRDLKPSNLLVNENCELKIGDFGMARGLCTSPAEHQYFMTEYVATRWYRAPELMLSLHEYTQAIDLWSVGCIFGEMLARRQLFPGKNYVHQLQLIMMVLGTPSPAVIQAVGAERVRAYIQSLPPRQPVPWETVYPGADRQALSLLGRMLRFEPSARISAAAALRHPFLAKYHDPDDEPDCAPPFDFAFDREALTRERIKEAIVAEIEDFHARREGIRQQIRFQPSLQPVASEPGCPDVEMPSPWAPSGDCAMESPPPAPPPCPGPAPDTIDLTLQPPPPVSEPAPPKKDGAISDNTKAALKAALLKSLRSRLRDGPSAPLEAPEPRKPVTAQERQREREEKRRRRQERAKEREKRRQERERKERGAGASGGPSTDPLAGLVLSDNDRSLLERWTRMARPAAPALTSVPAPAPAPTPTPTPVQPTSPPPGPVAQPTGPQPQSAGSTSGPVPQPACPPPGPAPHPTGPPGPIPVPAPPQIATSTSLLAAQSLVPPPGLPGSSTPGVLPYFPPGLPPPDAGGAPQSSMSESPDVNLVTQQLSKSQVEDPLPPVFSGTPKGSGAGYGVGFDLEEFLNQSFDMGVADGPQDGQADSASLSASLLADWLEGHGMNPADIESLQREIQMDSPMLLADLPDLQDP

The target in the next experiment is T2, IKK-epsilon (Homo sapiens, UniProt Q14164).
T2 construct: gene IKBKE

Another experiment addresses T3, LZK (Homo sapiens, UniProt O43283).
T3 construct: gene MAP3K13

The next experiment deals with T4, MST1 (Homo sapiens, UniProt Q13043).
T4 construct: gene STK4

Experiment [1] concerns the target T5, RSK3(Kin.Dom.1-N-terminal) (Homo sapiens, UniProt Q15349).
T5 construct: gene RPS6KA2; Kin.Dom.1-N-terminal

A further experiment has as its target T6, p38-alpha (Homo sapiens, UniProt Q16539).
T6 construct: gene MAPK14

GAK, sequence (O14976 whole entry): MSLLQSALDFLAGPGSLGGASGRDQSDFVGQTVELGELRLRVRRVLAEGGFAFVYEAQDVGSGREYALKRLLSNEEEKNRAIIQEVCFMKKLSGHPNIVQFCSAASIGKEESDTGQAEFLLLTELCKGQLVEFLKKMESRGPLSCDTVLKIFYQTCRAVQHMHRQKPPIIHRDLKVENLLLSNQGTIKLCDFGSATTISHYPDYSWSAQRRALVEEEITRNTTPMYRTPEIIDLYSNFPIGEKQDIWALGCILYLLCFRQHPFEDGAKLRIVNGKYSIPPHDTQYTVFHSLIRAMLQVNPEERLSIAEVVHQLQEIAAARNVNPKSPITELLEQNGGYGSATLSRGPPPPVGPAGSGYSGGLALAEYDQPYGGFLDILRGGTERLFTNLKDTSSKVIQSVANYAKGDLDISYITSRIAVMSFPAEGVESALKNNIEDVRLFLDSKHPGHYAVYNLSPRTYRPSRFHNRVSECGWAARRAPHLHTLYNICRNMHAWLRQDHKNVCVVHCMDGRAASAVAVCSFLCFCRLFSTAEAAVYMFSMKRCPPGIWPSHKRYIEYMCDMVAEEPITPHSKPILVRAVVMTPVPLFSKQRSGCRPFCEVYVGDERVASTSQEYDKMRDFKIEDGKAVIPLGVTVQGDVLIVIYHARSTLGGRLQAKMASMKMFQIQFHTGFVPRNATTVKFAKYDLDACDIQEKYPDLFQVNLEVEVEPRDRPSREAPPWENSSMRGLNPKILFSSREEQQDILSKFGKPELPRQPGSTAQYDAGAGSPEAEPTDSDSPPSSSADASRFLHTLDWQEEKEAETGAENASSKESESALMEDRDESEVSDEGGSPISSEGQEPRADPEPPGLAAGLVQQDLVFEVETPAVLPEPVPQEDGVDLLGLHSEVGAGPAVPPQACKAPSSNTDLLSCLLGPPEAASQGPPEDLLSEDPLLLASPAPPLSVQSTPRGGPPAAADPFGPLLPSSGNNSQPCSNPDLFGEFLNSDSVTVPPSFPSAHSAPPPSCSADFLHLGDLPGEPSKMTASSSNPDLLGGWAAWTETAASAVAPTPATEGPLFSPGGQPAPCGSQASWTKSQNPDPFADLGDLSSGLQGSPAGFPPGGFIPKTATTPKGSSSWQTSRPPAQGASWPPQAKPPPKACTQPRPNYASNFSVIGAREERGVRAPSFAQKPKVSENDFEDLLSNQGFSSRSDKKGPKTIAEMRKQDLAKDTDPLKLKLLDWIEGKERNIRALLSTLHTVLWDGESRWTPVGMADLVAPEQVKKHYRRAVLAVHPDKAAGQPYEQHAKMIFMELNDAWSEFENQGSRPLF
PRKCI, sequence (P41743 whole entry): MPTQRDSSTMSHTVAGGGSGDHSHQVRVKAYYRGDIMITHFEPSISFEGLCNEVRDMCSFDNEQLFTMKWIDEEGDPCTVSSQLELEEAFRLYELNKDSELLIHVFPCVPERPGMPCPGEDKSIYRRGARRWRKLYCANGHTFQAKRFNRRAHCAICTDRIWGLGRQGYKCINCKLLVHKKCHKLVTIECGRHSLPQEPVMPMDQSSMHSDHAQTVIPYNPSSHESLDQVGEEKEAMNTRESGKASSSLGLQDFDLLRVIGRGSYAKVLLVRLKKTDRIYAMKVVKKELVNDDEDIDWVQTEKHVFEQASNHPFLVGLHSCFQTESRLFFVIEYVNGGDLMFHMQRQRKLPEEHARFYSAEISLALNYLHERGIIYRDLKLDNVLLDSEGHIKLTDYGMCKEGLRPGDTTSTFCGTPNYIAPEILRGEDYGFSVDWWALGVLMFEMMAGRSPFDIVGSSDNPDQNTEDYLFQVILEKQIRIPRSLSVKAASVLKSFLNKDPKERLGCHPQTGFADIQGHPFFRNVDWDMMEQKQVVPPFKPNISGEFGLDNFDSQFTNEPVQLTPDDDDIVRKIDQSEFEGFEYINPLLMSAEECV
CDK5, sequence (Q00535 whole entry): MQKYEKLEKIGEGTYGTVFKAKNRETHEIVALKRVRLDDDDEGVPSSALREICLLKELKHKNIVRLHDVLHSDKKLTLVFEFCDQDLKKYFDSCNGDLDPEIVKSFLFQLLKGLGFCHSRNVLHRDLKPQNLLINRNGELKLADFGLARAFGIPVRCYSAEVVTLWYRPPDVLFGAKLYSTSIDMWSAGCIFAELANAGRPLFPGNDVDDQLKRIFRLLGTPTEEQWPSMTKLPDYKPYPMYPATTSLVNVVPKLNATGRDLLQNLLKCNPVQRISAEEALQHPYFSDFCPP
NEK4, sequence (P51957 whole entry): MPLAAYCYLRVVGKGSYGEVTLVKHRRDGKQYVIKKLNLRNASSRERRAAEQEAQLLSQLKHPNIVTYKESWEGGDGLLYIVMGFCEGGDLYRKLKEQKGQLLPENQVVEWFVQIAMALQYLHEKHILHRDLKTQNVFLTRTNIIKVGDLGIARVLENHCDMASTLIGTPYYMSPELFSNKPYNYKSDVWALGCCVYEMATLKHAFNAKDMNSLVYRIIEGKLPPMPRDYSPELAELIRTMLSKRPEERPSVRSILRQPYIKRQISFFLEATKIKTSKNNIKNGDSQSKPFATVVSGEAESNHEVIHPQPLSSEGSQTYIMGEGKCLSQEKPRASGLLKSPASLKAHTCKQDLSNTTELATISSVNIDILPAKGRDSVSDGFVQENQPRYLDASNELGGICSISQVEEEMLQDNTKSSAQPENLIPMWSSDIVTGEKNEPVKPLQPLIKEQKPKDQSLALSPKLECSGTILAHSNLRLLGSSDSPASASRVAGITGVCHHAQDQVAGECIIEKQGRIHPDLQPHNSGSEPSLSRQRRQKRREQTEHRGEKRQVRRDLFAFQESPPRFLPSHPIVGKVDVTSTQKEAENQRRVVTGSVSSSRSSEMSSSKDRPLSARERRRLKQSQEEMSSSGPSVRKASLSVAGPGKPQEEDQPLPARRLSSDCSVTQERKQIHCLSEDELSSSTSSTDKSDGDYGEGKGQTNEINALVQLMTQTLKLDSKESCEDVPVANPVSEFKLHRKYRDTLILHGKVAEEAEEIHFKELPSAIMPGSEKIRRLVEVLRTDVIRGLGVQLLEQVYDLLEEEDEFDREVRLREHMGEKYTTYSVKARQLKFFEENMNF
CHEK1, sequence (O14757 whole entry): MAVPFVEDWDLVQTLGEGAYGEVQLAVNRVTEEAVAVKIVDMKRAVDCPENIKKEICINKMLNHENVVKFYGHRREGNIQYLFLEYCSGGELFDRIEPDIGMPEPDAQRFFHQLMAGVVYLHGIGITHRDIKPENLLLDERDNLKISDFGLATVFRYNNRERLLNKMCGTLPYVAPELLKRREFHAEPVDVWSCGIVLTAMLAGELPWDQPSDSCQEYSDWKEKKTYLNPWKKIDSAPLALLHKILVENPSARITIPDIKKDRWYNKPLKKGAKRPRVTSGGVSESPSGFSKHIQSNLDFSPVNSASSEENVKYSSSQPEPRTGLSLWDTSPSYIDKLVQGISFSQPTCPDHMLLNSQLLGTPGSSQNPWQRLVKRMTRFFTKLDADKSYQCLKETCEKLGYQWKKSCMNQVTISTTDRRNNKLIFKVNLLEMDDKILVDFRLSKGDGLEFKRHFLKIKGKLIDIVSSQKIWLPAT
CAMK2D, sequence (Q13557 whole entry): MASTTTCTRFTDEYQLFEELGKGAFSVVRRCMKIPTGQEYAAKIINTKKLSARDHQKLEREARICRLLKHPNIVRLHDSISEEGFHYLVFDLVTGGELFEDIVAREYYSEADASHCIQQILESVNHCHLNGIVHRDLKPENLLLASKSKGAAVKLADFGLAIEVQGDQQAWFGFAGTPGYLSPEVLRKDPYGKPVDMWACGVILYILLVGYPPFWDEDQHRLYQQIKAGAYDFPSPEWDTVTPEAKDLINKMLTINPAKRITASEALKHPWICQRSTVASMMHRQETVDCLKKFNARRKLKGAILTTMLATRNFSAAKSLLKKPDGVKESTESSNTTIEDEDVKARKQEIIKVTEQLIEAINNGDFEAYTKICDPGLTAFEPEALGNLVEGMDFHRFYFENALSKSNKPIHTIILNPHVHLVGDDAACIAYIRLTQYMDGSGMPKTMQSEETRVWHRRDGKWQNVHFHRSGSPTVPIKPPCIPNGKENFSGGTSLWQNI

In the case of `COc1ccc(-c2cnccc2-c2cnc(NC(=O)C(C)C)s2)c(C(F)(F)F)c1` [CRT0105446, N-{5-[3-(4-Methoxy-2-trifluoromethyl-phenyl)-pyridin-4-yl]-hiazol-2-yl}-isobutyramide], the remaining binding at 10 µM turned out to be 79% at BRAF; 72% on CAMK2D; 60% at CDK5; 100% on CHEK1; 86% at ERK5; 80% at FLT1. Moreover, the remaining binding at 10 µM stood at 92% at GAK; 98% at HIPK3; 85% on IKK-epsilon; 100% on LZK; 49% at MKNK1; 100% at MST1. For the same molecule, the remaining binding at 10 µM was determined as 91% at NEK4; 100% on NEK7; 80% on PAK2; 82% on PAK4; 100% at PIK3CA(I800L); 96% at PKN2. For the same molecule, the remaining binding at 10 µM at PRKCI turned out to be 81%; on ROS1, 100%; in [1], 71%; at TNK2, 91%; on p38-alpha, 93%.

Take `Cc1ccc(-c2cnccc2-c2cnc(Nc3ccc(O)cc3)s2)c(Cl)c1` [CRT0105950, 4-{5-[3-(2-Chloro-4-methyl-phenyl)-pyridin-4-yl]-thiazol-2-ylamino}-phenol]: the remaining binding at 10 µM was 93% on BRAF; 29% on CAMK2D; 12% at CDK5; 88% on CHEK1; 93% on ERK5; 21% on FLT1. In addition, the remaining binding at 10 µM on GAK came out at 22%; at HIPK3 it was 69%; on IKK-epsilon it was 41%; on LZK it was 96%; on MKNK1, 46%; on MST1, 3.4%. In addition, the remaining binding at 10 µM on NEK4 is 77%; at NEK7, 100%; at PAK2, 76%; on PAK4, 79%; on PIK3CA(I800L), 100%; on PKN2 it was 26%. In addition, the remaining binding at 10 µM on PRKCI was 79%; at ROS1 it was 100%; in [1] it was 0.15%; on TNK2, 25%; at p38-alpha it was 87%.
